We go through four compounds from EPA's ToxRefDB 2.

For data set [1], the system named is dog. The settings on record: Sub-acute repeat dose toxicity, beagle, Oral, Gavage/Intubation, dose end: 14 day, group: systemic.
Data set [2] deals with rat. Particulars: Sub-acute repeat dose toxicity; sprague dawley; Oral; Gavage/Intubation; dose end: 14 day; group: systemic; systemic / clinical chemistry / [other] / [other] + systemic / clinical chemistry / 5' nucleotidase / 5' nucleotidase + systemic / clinical ….
Data set [3] relates to rat. Particulars: Prenatal developmental toxicity study, sprague dawley, Oral, Gavage/Intubation, dose end: 17 GD.
The test system of data set [4] is mouse. Particulars: Combined chronic toxicity/carcinogenicity; b6c3f1; Oral; Feed; dose end: 104 week; group: systemic; systemic / in life observation / body weight / body weight + systemic / in life observation / body weight / body weight gain + systemic / ….
Data set [5] has as its system dog. The settings on record: Chronic toxicity; beagle; Oral; Feed; dose end: 52 week; group: systemic; systemic / organ weight / adrenal gland / absolute + systemic / organ weight / adrenal gland / relative to body weight + systemic / ….
In data set [6] the test system is rat. The settings on record: Subchronic oral toxicity in rodents, fischer, Feed, dose end: 13 week.
Data set [7] concerns rat. Particulars: Combined chronic toxicity/carcinogenicity; fischer; Oral; Feed; dose end: 24 month; group: systemic; systemic / in life observation / body weight / body weight + systemic / in life observation / body weight / body weight gain + systemic / ….
For data set [8], the system named is mouse. Particulars: Combined chronic toxicity/carcinogenicity, other, Oral, [Not Specified], dose end: 99 week, group: systemic.
Data set [9] has as its system dog. The settings on record: Subchronic oral toxicity in nonrodent, beagle, Feed, dose end: 13 week, group: systemic, systemic / organ weight / lung / relative to body weight + systemic / pathology gross / lung / [other] + systemic / pathology microscopic / ….
Data set [10] concerns rat. The settings on record: Combined chronic toxicity/carcinogenicity, wistar, Oral, Feed, dose end: 104 week.
Data set [11] relates to rat. Particulars: Prenatal developmental toxicity study, other, Oral, Gavage/Intubation, dose end: 15 GD.
In data set [12] the test system is mouse. The settings on record: Combined chronic toxicity/carcinogenicity, other, Oral, Feed, dose end: 104 week, group: systemic.
In data set [13] the test system is dog. Particulars: Chronic toxicity, beagle, Oral, Feed, dose end: 52 week, group: systemic.
The subject of data set [14] is mouse. The settings on record: Combined chronic toxicity/carcinogenicity, b6c3f1, Oral, Feed, dose end: 5 week, group: systemic.
For data set [15], the system named is mouse. Particulars: Combined chronic toxicity/carcinogenicity, b6c3f1, Oral, Feed, dose end: 104 week, group: systemic.
In data set [16] the test system is rat. The settings on record: Combined chronic toxicity/carcinogenicity, fischer, Oral, Feed, dose end: 13 week, group: systemic.
For data set [17], the system named is rat. The settings on record: Combined chronic toxicity/carcinogenicity, fischer, Oral, Feed, dose end: 119 week, group: systemic.
The mark [18] stands for this setting: systemic / clinical chemistry / cholesterol / cholesterol + systemic / clinical chemistry / thyroid stimulating hormone (thyrotropin) (tsh….
Setting [19] is: systemic / clinical chemistry / thyroid stimulating hormone (thyrotropin) (tsh) / thyroid stimulating hormone (=thyrotropin) (tsh) + ….
The mark [20] stands for this setting: group: developmental, developmental / developmental malformation / bone / delayed ossification.
Where [21] appears, read: group: maternal, systemic / in life observation / body weight / body weight gain + systemic / in life observation / food consumption / food consumption + ….
Where [22] appears, read: group: cholinesterase, cholinesterase / cholinesterase / cholinesterase / plasma cholinesterase (che).
[23] abbreviates: group: systemic, systemic / organ weight / kidney / relative to body weight + systemic / organ weight / liver / absolute + systemic / organ weight / liver / ….
Setting [24] is: systemic / in life observation / body weight / body weight + systemic / in life observation / food consumption / food consumption + systemic….
Where [25] appears, read: systemic / in life observation / food consumption / food consumption + systemic / pathology microscopic / blood / [other] + systemic / ….
[26] abbreviates: group: cholinesterase, cholinesterase / cholinesterase / cholinesterase / erythrocyte cholinesterase (che).
[27] abbreviates: group: systemic, systemic / organ weight / kidney / absolute + systemic / organ weight / ovary / absolute.
Setting [28] is: group: systemic, systemic / organ weight / kidney / absolute + systemic / organ weight / ovary / absolute + systemic / organ weight / brain / relative to ….
Where [29] appears, read: group: developmental, developmental / developmental malformation / bone / delayed ossification + systemic / in life observation / body weight / fetal weight.
Setting [30] is: group: maternal, systemic / in life observation / body weight / body weight gain + systemic / in life observation / clinical signs / emaciation + systemic / ….
The mark [31] stands for this setting: systemic / pathology microscopic / lung / [other] + systemic / urinalysis / [other] / urine.
Setting [32] is: systemic / organ weight / liver / absolute + systemic / organ weight / liver / relative to body weight + systemic / pathology microscopic / ….
Setting [33] is: systemic / organ weight / kidney / absolute + systemic / organ weight / liver / relative to body weight.
The mark [34] stands for this setting: systemic / organ weight / kidney / absolute + systemic / organ weight / liver / relative to body weight + systemic / organ weight / kidney….
The mark [35] stands for this setting: systemic / organ weight / spleen / absolute + systemic / organ weight / spleen / relative to body weight.
Where [36] appears, read: systemic / in life observation / body weight / body weight gain + systemic / organ weight / liver / relative to body weight + systemic / ….

Each structure is given as a SMILES string. Where only a bound is given, the exact number is not on record here.

`Cc1cc(NC(=O)C(=O)O)cc(C)c1Oc1ccc(O)c2c1CCC2`: in the data set on dog [1] (setting [18]), the LEL was determined as 5 mg/kg/day and the NEL was less than 5 mg/kg/day. Further, in the data set on dog [1] (setting [19]), the lowest-observed-adverse-effect level (LOAEL) – broadly, the lowest tested level that showed an adverse finding – is more than 100 mg/kg/day and the NOAEL (in general, the highest tested level that showed no adverse finding) is not below 100 mg/kg/day. In the data set on rat [2], the LEL was 1 mg/kg/day, the LOAEL was more than 1000 mg/kg/day, the NEL was less than 1 mg/kg/day and the NOAEL is not below 1000 mg/kg/day.

With `C[C@H]1[C@H](c2ccc(Cl)cc2)SC(=O)N1C(=O)NC1CCCCC1` [Hexythiazox], the LEL in the data set with rat [3] (setting [20]) was found to be 720 mg/kg/day; with rat [3] (setting [21]), 720 mg/kg/day; in the data set with mouse [4], 267 mg/kg/day; with dog [5] it was 13.1 mg/kg/day; in the data set on rat [6] (setting [22]) it was 50 mg/kg/day; in the data set on rat [6] (setting [23]) it was 50 mg/kg/day. Further, the LEL in the data set with rat [7] was found to be 163 mg/kg/day. In addition, the LOAEL with rat [3] (setting [20]) was more than 2160 mg/kg/day; in the data set on rat [3] (group: maternal, systemic / in life observation / body weight / body weight gain + systemic / in life observation / food consumption / food consumption) it was 720 mg/kg/day; with mouse [4] it was 267 mg/kg/day; in the data set with dog [5], 13.1 mg/kg/day; in the data set on rat [6] (setting [22]), more than 350 mg/kg/day; with rat [6] (setting [23]), 50 mg/kg/day. Besides, the LOAEL in the data set with rat [7] came to 163 mg/kg/day. The NEL in the data set on rat [3] (setting [20]) came out at 240 mg/kg/day; in the data set with rat [3] (setting [21]) it was 240 mg/kg/day; with mouse [4], 41.6 mg/kg/day; with dog [5], 2.87 mg/kg/day; in the data set with rat [6] (setting [22]) it was 7 mg/kg/day; with rat [6] (setting [23]) it was 7 mg/kg/day. Moreover, in the data set on rat [7], the NEL came out at 23 mg/kg/day. The NOAEL in the data set on rat [3] (setting [20]) is not below 2160 mg/kg/day; in the data set with rat [3] (setting [21]) it was 240 mg/kg/day; in the data set on mouse [4], 41.6 mg/kg/day; in the data set on dog [5] it was 2.87 mg/kg/day; in the data set with rat [6] (setting [22]), not below 350 mg/kg/day; in the data set on rat [6] (setting [23]), 7 mg/kg/day. Moreover, the NOAEL in the data set on rat [7] was found to be 23 mg/kg/day.

Regarding `C[n+]1ccc(-c2cc[n+](C)cc2)cc1.[Cl-].[Cl-]` [Paraquat dichloride], the LOAEL was 5.62 mg/kg/day in the data set on mouse [8] (setting [24]); 1.5 mg/kg/day in the data set on dog [9]; 15 mg/kg/day with rat [10] (setting [26]); 15 mg/kg/day in the data set on rat [10] (setting [28]); 5 mg/kg/day in the data set on rat [11] (setting [20]); 5 mg/kg/day with rat [11] (setting [30]). The lowest observed adverse effect level (LOAEL) in the data set with mouse [12] (systemic / hematology / leukocyte (wbc) count differential / leukocyte (wbc) + systemic / hematology / erythrocyte (rbc) count differential…) is 13 mg/kg/day; in the data set on dog [13] (systemic / pathology microscopic / lung / inflammation), 0.93 mg/kg/day. Further, the NOAEL in the data set with mouse [8] (setting [24]) was found to be 1.88 mg/kg/day; in the data set on dog [9], 0.5 mg/kg/day; in the data set on rat [10] (setting [26]) it was 5 mg/kg/day; in the data set on rat [10] (setting [27]), 5 mg/kg/day; in the data set with rat [11] (setting [29]), 1 mg/kg/day; in the data set on rat [11] (setting [30]) it was 1 mg/kg/day. Besides, the no-observed-adverse-effect level (NOAEL) turned out to be 3.82 mg/kg/day with mouse [12] (systemic / hematology / leukocyte (wbc) count differential / leukocyte (wbc)) and 0.45 mg/kg/day in the data set on dog [13] (systemic / pathology microscopic / lung / inflammation + systemic / pathology microscopic / ear / squamous cell papilloma + systemic / in …). The LEL in the data set on mouse [8] (setting [25]) turned out to be 1.88 mg/kg/day; with dog [9], 1.5 mg/kg/day; in the data set on rat [10] (setting [26]) it was 15 mg/kg/day; in the data set with rat [10] (setting [28]), 15 mg/kg/day; in the data set on rat [11] (setting [29]), 5 mg/kg/day; in the data set with rat [11] (setting [30]), 5 mg/kg/day. The LEL with mouse [12] (systemic / pathology microscopic / mammary gland / [other]) is 3.82 mg/kg/day; in the data set on dog [13] (setting [31]) it was 0.45 mg/kg/day. Moreover, the NEL was less than 1.88 mg/kg/day in the data set on mouse [8] (setting [25]); 0.5 mg/kg/day with dog [9]; 5 mg/kg/day in the data set with rat [10] (setting [26]); 5 mg/kg/day in the data set with rat [10] (setting [27]); 1 mg/kg/day with rat [11] (setting [29]); 1 mg/kg/day with rat [11] (setting [30]). Also, the NEL with mouse [12] (systemic / pathology microscopic / mammary gland / [other] + systemic / clinical chemistry / glucose / glucose + systemic / clinical …) is 1.32 mg/kg/day; in the data set on dog [13] (setting [31]), less than 0.45 mg/kg/day.

As for `CC(C)=CC1C(C(=O)OCc2cccc(Oc3ccccc3)c2)C1(C)C` (centres undefined) [Phenothrin], the lowest observed adverse effect level (LOAEL) was determined as 565 mg/kg/day in the data set on mouse [14] (setting [32]), 150 mg/kg/day with mouse [15] (setting [34]), 216 mg/kg/day in the data set on rat [16] (systemic / clinical chemistry / cholesterol / cholesterol + systemic / clinical chemistry / lactic acid dehydrogenase (ldh) / lactic acid …) and 150 mg/kg/day in the data set on rat [17] (setting [36]). Besides, the NEL was 57 mg/kg/day with mouse [14] (setting [32]), less than 45 mg/kg/day in the data set on mouse [15] (setting [33]), less than 21 mg/kg/day in the data set on rat [16] (setting [35]) and 50 mg/kg/day with rat [17] (systemic / organ weight / liver / relative to body weight). Besides, the no-observed-adverse-effect level (NOAEL) in the data set with mouse [14] (setting [32]) amounted to 190 mg/kg/day; with mouse [15] (setting [34]), 45 mg/kg/day; in the data set on rat [16] (systemic / organ weight / spleen / absolute + systemic / organ weight / spleen / relative to body weight + systemic / clinical chemistry / …), 70 mg/kg/day; with rat [17] (systemic / in life observation / body weight / body weight gain), 50 mg/kg/day. Also, the LEL is 190 mg/kg/day in the data set on mouse [14] (systemic / pathology microscopic / liver / necrosis), 45 mg/kg/day in the data set with mouse [15] (setting [33]), 21 mg/kg/day in the data set on rat [16] (setting [35]) and 150 mg/kg/day in the data set on rat [17] (setting [36]).
